According to patent publication US11130960B2, “Methods for conferring or enhancing herbicide resistance on plants and/or alga with protoporphyrinogen oxidase variants” (FARM HANNONG CO., LTD., priority 2014, dated 2021):

Legend:
CyPPO8 = assay: Growth inhibition of transformed PPO-deficient E. coli BT3(ΔPPO) on LB agar medium; format: cell-based, Halothece sp. PCC 7418; conditions: 37° C., 16~20 hours
Text: (§1) To test herbicide resistance of CyPPO2, CyPPO4, CyPPO8 and CyPPO12 isolated in Example 1, PPO-deficient BT3 E. coli [hereinafter, referred to as BT3(ΔPPO)] was transformed with CyPPO2, CyPPO4, CyPPO8 or CyPPO12 gene, respectively and then cultured in the presence of herbicides to examine growth inhibition of the transformed E. coli. As a negative control, Arabidopsis thaliana-derived wild-type PPO (wild-type AtPPO1) was used, and wild-type AtPPO1 has sensitivity to PPO-based herbicides and its sequence information is available in GeneBank accession no. AX084732 (a nucleotide sequence of the gene is represented by SEQ ID NO: 10, and an amino acid sequence thereof is represented by SEQ ID NO: 9). As a positive control, Mutant AtPPO1 was used, in which amino acid replacements of Y426M (replacement of tyrosine by methionine at position 426) and S305L (replacement of serine by leucine at position 305) occur in the amino acid sequence of the wild-type AtPPO1 (an amino acid sequence is represented by SEQ ID NO: 11) (Li X, Volrath S L., N D B. G., Chilcott C E, Johnson M A, Ward E R, Law M D (2003) Development of protoporphyrinogen oxidase as an efficient selection marker for Agrobacterium tumefaciens-mediated transformation of maize. Plant physiology 133:736-747).
(§2) BT3(ΔPPO) strain was provided by Hokkaido University (Japan) and it is an E. coli strain which is deficient in hemG-type PPO and has Kanamycin resistance (Watanabe et al., (2001) Dual targeting of spinach protoporphyrinogen oxidase II to mitochondria and chloroplasts by alternative use of two in-frame […] codons. JBC 2047420481).
(§3) HVE-50 autoclave from Hirayama, HS2100A electronic scale from Hansung Instrument, CB-30V clean bench from Jeio Tech, JSI-200CL incubator from JSR, 1210 type UV-visible spectrophotometer from Thermo Fisher Scientific, MQ-200 photometer from Apogee, and Bio-Rad MyCycler as PCR machine were used. The autoclave was used under conditions of 121° C. and 15 minutes, and the incubator was used at 37° C. with lighting of 160˜200 μmol m^−2 s^−1 for a culture time of 14˜20 hours. LB medium (10 g/L of Bacto-Tryptone, 5 g/L of Yeast extract, 10 g/L of sodium chloride, 15 g/L of Bacto agar) and an antibiotic Chloramphenicol (Duchefa) were used.
(§4) To clone each of the CyPPO2, CyPPO4, CyPPO8 and CyPPO12 genes isolated and amplified in Example 1 into pACBB (its structure is shown in FIG. 2), 10 μl of a solution containing 4 μl of each PPO gene, […], 1 μl of 10× buffer A, 1 μl of 10× buffer B, 1 μl of ligase (RBC, 3 unit/μl) was prepared and allowed to react at 22° C. for 30 minutes. The reaction solution was added to 100 μl of DH5 alpha competent cells, and allowed to react on ice for 20 minutes and then left at 42° C. for 40 seconds. Thereafter, the cells were left on ice for 2 minutes, and then 1 ml of LB broth was added thereto, followed by incubation with shaking at 37° C. for 1 hour. The strains having each gene insert in the culture medium were harvested, and then cultured on LB agar medium containing chloramphenicol.
(§5) For seed culture of E. coli transformed with respective genes, single colonies thereof were cultured in 3 ml of LB broth containing chloramphenicol overnight, and each 100 μl thereof was sub-cultured in 3 ml of fresh LB broth until absorbance (OD600) reached 0.5˜1. They were diluted with LB broth to absorbance (OD600) of 0.5. 10-fold dilution of this diluted solution was performed with LB broth five times. Next, 10 μl of the diluted solution of the transformed E. coli culture was dropped on LB agar medium (petri dish) containing chloramphenicol and a variety of herbicide stocks at different concentrations (0˜400 μM). The LB agar plates were incubated at 37° C. At 16˜20 hours after culture, growth inhibition was examined with the naked eye. Further, growth inhibition of the strains cultured in a medium containing Tiafenacil was examined under light (lighting of 169 μmol m^−2s^−1) and dark conditions.

CyPPO4 = assay: as above; format: cell-based, Lyngbya sp. PCC 8106; conditions: 37° C., 16~20 hours
Text: as §1, §2, §3, §4, §5

Mutant AtPPO1 = biological target: T1, Mutant AtPPO1 (Arabidopsis thaliana, UniProt P55826, S305L/Y426M); assay: as above; format: cell-based; conditions: 37° C., 16~20 hours
T1 construct: expressed in transfected cells; host or cells: E. coli BT3(ΔPPO), pACBB vector
T1 sequence (P55826 35-537 S305L/Y426M): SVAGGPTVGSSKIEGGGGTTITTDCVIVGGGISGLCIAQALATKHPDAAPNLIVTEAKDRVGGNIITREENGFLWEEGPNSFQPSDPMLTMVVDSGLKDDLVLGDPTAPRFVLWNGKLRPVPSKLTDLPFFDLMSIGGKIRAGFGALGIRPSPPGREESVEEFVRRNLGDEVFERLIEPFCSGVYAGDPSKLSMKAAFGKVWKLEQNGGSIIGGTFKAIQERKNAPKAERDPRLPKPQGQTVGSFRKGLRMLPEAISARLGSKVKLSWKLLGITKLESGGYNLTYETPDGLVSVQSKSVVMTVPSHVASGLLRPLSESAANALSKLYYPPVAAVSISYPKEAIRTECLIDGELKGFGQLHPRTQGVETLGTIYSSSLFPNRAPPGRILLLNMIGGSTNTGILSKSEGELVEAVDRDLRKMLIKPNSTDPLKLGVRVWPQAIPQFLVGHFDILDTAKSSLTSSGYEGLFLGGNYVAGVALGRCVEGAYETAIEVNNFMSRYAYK
Text: as §1, §2, §3, §4, §5

CyPPO12 = assay: as above; format: cell-based, Microcoleus vaginatus; conditions: 37° C., 16~20 hours
Text: as §1, §2, §3, §4, §5

[1] = system: mutant AtPPO1 transformant; assay: Herbicide spray test on Arabidopsis thaliana T2 plants; format: in vivo; conditions: 2-3 ml of 0.5 μM Tiafenacil, 1 μM Saflufenacil, or 3 μM Fomesafen per plant
CyPPO2 transformant = assay: as above; format: in vivo; conditions: 2-3 ml of 0.5 μM Tiafenacil, 1 μM Saflufenacil, or 3 μM Fomesafen per plant
Protocol: (§6) To examine whether herbicide resistance traits are maintained in the next generations of plants, respective T2 generation plants of Arabidopsis thaliana which were transformed with CyPPO2, CyPPO4 and CyPPO8 genes were subjected to an herbicide resistance test. 2-3 ml of 0.5 μM Tiafenacil, 1 μM Saflufenacil, or 3 μM Fomesafen was sprayed onto each Arabidopsis thaliana plant grown for about 4 weeks.

CyPPO8 transformant = assay: as above; format: in vivo; conditions: 2-3 ml of 0.5 μM Tiafenacil, 1 μM Saflufenacil, or 3 μM Fomesafen per plant
Protocol: as §6

CyPPO4 transformant = assay: as above; format: in vivo; conditions: 2-3 ml of 0.5 μM Tiafenacil, 1 μM Saflufenacil, or 3 μM Fomesafen per plant
Protocol: as §6

wild-type AtPPO1 = biological target: T2, wild-type AtPPO1 (Arabidopsis thaliana, UniProt P55826); assay: Growth inhibition of transformed PPO-deficient E. coli BT3(ΔPPO) on LB agar medium; format: cell-based
T2 construct: expressed in transfected cells; host or cells: E. coli BT3(ΔPPO), pACBB vector
T2 sequence (P55826 35-537): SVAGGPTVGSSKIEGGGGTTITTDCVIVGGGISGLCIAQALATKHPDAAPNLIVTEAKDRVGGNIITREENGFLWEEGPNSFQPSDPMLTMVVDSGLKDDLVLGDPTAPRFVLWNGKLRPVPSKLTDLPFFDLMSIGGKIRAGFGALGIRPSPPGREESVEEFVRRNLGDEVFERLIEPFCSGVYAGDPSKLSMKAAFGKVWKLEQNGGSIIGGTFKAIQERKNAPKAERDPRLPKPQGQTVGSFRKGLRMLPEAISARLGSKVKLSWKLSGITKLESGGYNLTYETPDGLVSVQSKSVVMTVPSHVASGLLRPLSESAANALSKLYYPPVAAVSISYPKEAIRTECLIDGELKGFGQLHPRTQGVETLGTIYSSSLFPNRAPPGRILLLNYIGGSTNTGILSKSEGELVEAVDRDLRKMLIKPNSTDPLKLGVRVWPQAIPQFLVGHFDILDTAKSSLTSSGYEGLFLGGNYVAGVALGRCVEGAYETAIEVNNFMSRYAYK
Text: as §1, §2, §3, §4, §5

[2] = LB agar medium, 37° C., 16~20 hours

O=C(O)c1cc(Oc2ccc(C(F)(F)F)cc2Cl)ccc1[N+](=O)[O-] [Acifluorfen]
concentration at which growth inhibition was hardly observed (CyPPO8): 400 µM
concentration at which growth inhibition was hardly observed (CyPPO4): 400 µM

C=CCOC(=O)C(C)(C)OC(=O)c1cc(-n2c(=O)cc(C(F)(F)F)n(C)c2=O)ccc1Cl [Butafenacil]
concentration at which growth inhibition was hardly observed (CyPPO8): 25 µM
concentration at which growth inhibition was not / hardly observed (Mutant AtPPO1): 25 µM

C#CCN1C(=O)COc2cc(F)c(N3C(=O)C4=C(CCCC4)C3=O)cc21 [Flumioxazin]
concentration at which growth inhibition was not / hardly observed (CyPPO12): 25 µM
concentration at which growth inhibition was hardly observed (CyPPO8): 25 µM
concentration at which growth inhibition was hardly observed (CyPPO4): 25 µM

COC(=O)CSc1cc(/N=c2\sc(=O)n3n2CCCC3)c(F)cc1Cl [Fluthiacet-methyl]
concentration at which growth inhibition was hardly observed (CyPPO8): 400 µM

CS(=O)(=O)NC(=O)c1cc(Oc2ccc(C(F)(F)F)cc2Cl)ccc1[N+](=O)[O-] [Fomesafen]
outcome of plants at 7 days after spraying [1]: continued to grow without damage
outcome of plants at 7 days after spraying (CyPPO2 transformant): continued to grow without damage
outcome of plants at 7 days after spraying (CyPPO8 transformant): continued to grow without damage
outcome of plants at 7 days after spraying (CyPPO4 transformant): continued to grow without damage
concentration at which growth inhibition was hardly observed (CyPPO8): 400 µM
concentration at which growth inhibition was observed (wild-type AtPPO1; [2]): 5 µM
concentration at which growth inhibition was not / hardly observed (Mutant AtPPO1): ≤ 25 µM
concentration at which growth inhibition was hardly observed (CyPPO4): 400 µM

CC(C)Oc1cc(-n2nc(C(C)(C)C)oc2=O)c(Cl)cc1Cl [Oxadiazon]
concentration at which growth inhibition was not / hardly observed (CyPPO12): 25 µM
concentration at which growth inhibition was hardly observed (CyPPO8): 400 µM
concentration at which growth inhibition began (wild-type AtPPO1; [2]): 0.5 µM
concentration at which growth inhibition was not / hardly observed (Mutant AtPPO1): 25 µM

CCOc1cc(Oc2ccc(C(F)(F)F)cc2Cl)ccc1[N+](=O)[O-] [Oxyfluorfen]
concentration at which growth inhibition was hardly observed (CyPPO8): 400 µM
concentration at which growth inhibition began (Mutant AtPPO1): 5 µM
concentration at which growth inhibition was hardly observed (CyPPO4): 400 µM

CC(C)=C1OC(=O)N(c2cc(OC3CCCC3)c(Cl)cc2F)C1=O [Pentoxazone]
concentration at which growth inhibition was not / hardly observed (CyPPO12): 25 µM
concentration at which growth inhibition was hardly observed (CyPPO8): 400 µM
concentration at which growth inhibition was not / hardly observed (Mutant AtPPO1): 25 µM

C#CCN(C)c1c(C#N)cnn1-c1nn2c(c1Cl)CCCC2 [Pyraclonil]
concentration at which growth inhibition was not / hardly observed (CyPPO12): 25 µM
concentration at which growth inhibition was hardly observed (CyPPO8): 400 µM
concentration at which the strain hardly grew (wild-type AtPPO1; [2]): 25 µM
concentration at which growth inhibition was not / hardly observed (Mutant AtPPO1): 25 µM

CCOC(=O)COc1cc(-c2nn(C)c(OC(F)F)c2Cl)c(F)cc1Cl [Pyraflufen-ethyl]
concentration at which growth inhibition was not / hardly observed (CyPPO12): 25 µM
concentration at which growth inhibition was hardly observed (CyPPO8): 400 µM
concentration at which growth inhibition began (wild-type AtPPO1; [2]): 0.5 µM
concentration at which growth inhibition was not / hardly observed (Mutant AtPPO1): 25 µM

CC(C)N(C)S(=O)(=O)NC(=O)c1cc(-n2c(=O)cc(C(F)(F)F)n(C)c2=O)c(F)cc1Cl [Saflufenacil]
concentration at which growth inhibition was not / hardly observed (CyPPO12): 25 µM
outcome of plants at 7 days after spraying [1]: continued to grow without damage
outcome of plants at 7 days after spraying (CyPPO2 transformant): continued to grow without damage
outcome of plants at 7 days after spraying (CyPPO8 transformant): continued to grow without damage
outcome of plants at 7 days after spraying (CyPPO4 transformant): continued to grow without damage
concentration at which growth inhibition was hardly observed (CyPPO8): 25 µM
concentration at which growth inhibition was not / hardly observed (Mutant AtPPO1): 25 µM
concentration at which growth inhibition was hardly observed (CyPPO4): 25 µM

Cc1nn(-c2cc(NS(C)(=O)=O)c(Cl)cc2Cl)c(=O)n1C(F)F [Sulfentrazone]
concentration at which growth inhibition was not / hardly observed (CyPPO12): 25 µM
concentration at which growth inhibition was hardly observed (CyPPO8): 400 µM
concentration at which growth inhibition began (wild-type AtPPO1; [2]): 0.5 µM
concentration at which growth inhibition was not / hardly observed (Mutant AtPPO1): 25 µM
concentration at which growth inhibition was hardly observed (CyPPO4): 400 µM

COC(=O)CCNC(=O)C(C)Sc1cc(-n2c(=O)cc(C(F)(F)F)n(C)c2=O)c(F)cc1Cl (stereo not shown) [Tiafenacil]
concentration at which growth inhibition was not / hardly observed (CyPPO12): 25 µM
outcome of plants at 7 days after spraying [1]: continued to grow without damage
outcome of plants at 7 days after spraying (CyPPO2 transformant): continued to grow without damage
outcome of plants at 7 days after spraying (CyPPO8 transformant): continued to grow without damage
outcome of plants at 7 days after spraying (CyPPO4 transformant): continued to grow without damage
concentration at which growth inhibition was hardly observed (CyPPO8): 25 µM
growth at 1 μM under dark condition (wild-type AtPPO1; agar medium, 1 μM, dark condition): rather maintained
concentration at which growth was completely inhibited (wild-type AtPPO1; agar medium, both light and dark conditions): ≥ 5 µM
concentration at which growth was almost completely inhibited (wild-type AtPPO1; agar medium, light condition): 1 µM
concentration at which growth inhibition was not / hardly observed (Mutant AtPPO1): 25 µM
concentration at which growth inhibition was hardly observed (CyPPO4): 25 µM
